Source: patent publication US20260144752A1, “Multilamellar Vesicles and Methods and Uses Thereof” (ChromoLogic LLC, priority 2022, published 2026)

What was measured:
[1] = tested on: γ-H2AX+ intestinal crypt cells; conditions: mice, 9.25 Gy TBI; cited from earlier work
γ-H2AX = assay: IR-induced DNA double strand breaks, γ-H2AX immunohistochemistry in irradiated cells; type: cell-based; conditions: cells treated prior to irradiation of 0 Gy and 5 Gy, FIGS. 4A-4B
Text: In various embodiments JP4-039-MLVs have the ability to reduce IR-induced DNA double strand breaks (DSBs). IR induces DNA damage resulting in double strand breaks that can result in mitotic failure and cell death. Secondary oxidative stress induces further DNA damage. In response to double strand breaks, the histone H2AX is rapidly phosphorylated, producing γ-H2AX, a standard biomarker of DNA damage. […] FIGS. 4A-4B illustrate exemplary data from an embodiment showing the ability to reduce DNA DSBs. Specifically, FIG. 4A provides confocal images of cells treated with DMSO (control), JP4-039, and JP4-039-MLVs prior to irradiation of 0 Gy and 5 Gy. Cell nuclei are stained with DAPI (blue) and γ-H2AX is visualized by immunohistochemistry (green), while FIG. 4B illustrates relative frequency of γ-H2AX+ cells by counting blue puncta and green puncta.

[2] = cited from earlier work
[3] = cited from earlier work; remark: listed apart in the source
[4] = stated for comparison; cited from earlier work
lipid peroxidation = assay: Lipid peroxidation in cells exposed to IR; type: cell-based; conditions: cells exposed to 5 Gy IR, FIG. 5A
Text: (§1) In various embodiments JP4-039-MLV nanoparticles protect cells from IR-induced oxidative stress. In addition to DNA damage, IR-induced oxidative stress can result in lipid peroxidation, mitochondrial membrane permeability, and an increase in ROS concentration. FIGS. 5A-5C provide exemplary data of an embodiment showing reduction of IR-induced cellular dysregulation.

[5] = tested on: mitochondrial membrane permeability; assay: Mitochondrial membrane permeability in cells exposed to IR; type: cell-based; conditions: cells exposed to 10 Gy IR, FIG. 5B
Text: as §1

ROS = ROS levels in cells exposed to IR; type: cell-based; conditions: cells exposed to 5 Gy IR, FIG. 5C
Text: as §1

## JP4-039
[1]
  number of γ-H2AX+ intestinal crypt cells: reduce the number of γ-H2AX+ intestinal crypt cells
γ-H2AX
  protection from IR-induced DNA damage (relative frequency of γ-H2AX+ cells): protected cells from IR-induced DNA damage
[2]; hematopoietic- or gastrointestinal-ARS-inducing doses of TBI
  survival following TBI: increasing survival
[2]; in vivo radiation survival studies
  time window of effectiveness relative to irradiation: effective 24 h prior to 72 h after irradiation
[3]
  solubility in an aqueous environment: very low solubility
[4]
  in vivo half-life: approximately 6 hours
Lipid peroxidation
  levels of lipid peroxidation: reduce levels of lipid peroxidation
[5]
  levels of mitochondrial membrane permeability: reduced levels of mitochondrial membrane permeability
ROS
  ROS levels: reduced ROS levels
